# Measured values taken from ChEMBL document CHEMBL1130975, “Preparation of alpha-keto ester enol acetates as potential prodrugs of human neutrophil elastase inhibitors” (Bioorg Med Chem Lett, 1998).
# Experiments:
# [1] = biological target: T1, Neutrophil elastase (Homo sapiens, UniProt P08246); assay: Tested for rate of substrate hydrolysis in the presence of human neutrophil elastase
# T1 sequence (P08246 whole entry): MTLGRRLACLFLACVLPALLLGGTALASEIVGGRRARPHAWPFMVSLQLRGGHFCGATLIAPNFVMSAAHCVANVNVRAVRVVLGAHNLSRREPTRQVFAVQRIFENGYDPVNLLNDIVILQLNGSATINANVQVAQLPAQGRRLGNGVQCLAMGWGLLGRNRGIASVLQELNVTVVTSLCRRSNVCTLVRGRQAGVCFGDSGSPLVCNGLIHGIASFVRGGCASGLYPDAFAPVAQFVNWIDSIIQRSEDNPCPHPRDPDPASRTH
# [2] = biological target: T2, S-formylglutathione hydrolase (Sus scrofa) (UniProt Q9GJT2); conditions: 45 nM
# T2 sequence (whole entry): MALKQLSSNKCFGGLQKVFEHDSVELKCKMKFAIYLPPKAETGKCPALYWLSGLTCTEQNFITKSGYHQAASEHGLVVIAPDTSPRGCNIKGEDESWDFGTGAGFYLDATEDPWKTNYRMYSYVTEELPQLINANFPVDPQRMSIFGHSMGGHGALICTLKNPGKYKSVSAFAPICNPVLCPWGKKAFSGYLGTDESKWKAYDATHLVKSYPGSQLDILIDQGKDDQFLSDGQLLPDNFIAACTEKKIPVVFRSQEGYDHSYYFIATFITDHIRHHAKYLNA
# Description: Tested for rate of substrate hydrolysis in the presence of porcine kidney esterase at a concentration of 45 nM
# [3] = biological target: T2, S-formylglutathione hydrolase (Sus scrofa); conditions: 10 nM
# Description: Tested for rate of substrate hydrolysis in the presence of porcine kidney esterase at a concentration of 10 nM
# [4] = biological target: T3, Neutrophil elastase (Homo sapiens) (UniProt P08246); assay: Tested for rate of substrate hydrolysis in the presence of human neutrophil elastase at a concentration of 10 nM
# T3 sequence (whole entry): T1 sequence (P08246 whole entry)
# [5] = biological target: T3, Neutrophil elastase (Homo sapiens); assay: Tested for rate of substrate hydrolysis in the presence of human neutrophil elastase at a concentration of 45 nM
# [6] = biological target: T3, Neutrophil elastase (Homo sapiens); assay: Tested for rate of substrate hydrolysis in the presence of human neutrophil elastase at a concentration of 9 uM
# [7] = biological target: T2, S-formylglutathione hydrolase (Sus scrofa); assay: Tested for rate of substrate hydrolysis in the presence of porcine kidney esterase at a concentration of 9 uM
# [8] = biological target: T2, S-formylglutathione hydrolase (Sus scrofa); assay: Tested for rate of substrate hydrolysis in the presence of porcine kidney esterase at a concentration of 1 uM
# [9] = biological target: T3, Neutrophil elastase (Homo sapiens); assay: Tested for rate of substrate hydrolysis in the presence of human neutrophil elastase at a concentration of 1 uM
compound,measurement,setting,value
COC(=O)C(=O)[C@@H](NC(=O)C1CCCN1C(=O)[C@H](C)NC(=O)[C@H](C)NC(=O)c1ccc(C(=O)NS(=O)(=O)c2ccc(Cl)cc2)cc1)C(C)C (stereo not given in full),Ki,[1],2 nM
COC(=O)CCC(=O)N[C@@H](C)C(=O)N[C@@H](C)C(=O)N1CCC[C@H]1C(=O)N[C@H](C(=O)C(=O)OC)C(C)C,Ki,[1],200 nM
COC(=O)/C(OC(C)=O)=C(\NC(=O)[C@@H]1CCCN1C(=O)[C@H](C)NC(=O)[C@H](C)NC(=O)c1ccc(C(=O)NS(=O)(=O)c2ccc(Cl)cc2)cc1)C(C)C,Rate,[2],37%
same,Rate,[3],76%
same,Rate,[4],99%
same,Rate,[5],94%
COC(=O)CCC(=O)N[C@@H](C)C(=O)N[C@@H](C)C(=O)N1CCC[C@H]1C(=O)N/C(=C(/OC(C)=O)C(=O)OC)C(C)C,Rate,[6],35%
same,Rate,[7],2.8%
same,Rate,[8],24%
same,Rate,[9],81%
